Test results published in patent publication US5614370A, “Assay to identify human C5a antagonists and agonists” (Merck & Co., Inc., priority 1994, dated 1997).
Each block holds one molecule with its values, some of them ahead of it. Non-standard residues stand in square brackets, D forms with d. Residues, ends and D or L forms follow the SMILES beside them. No end group written: not given here. NMeF = CN[C@@H](Cc1ccccc1)C(=O)O; Cha = N[C@@H](CC1CCCCC1)C(=O)O; dCha = N[C@H](CC1CCCCC1)C(=O)O

Legend:
[1] = target: T1, C5a receptor (Homo sapiens, UniProt P21730); assay: Competition binding against 125I-labeled intact C5a on human neutrophil (PMN) membranes
T1 construct: followed by a 20 μL aliquot of neutrophil membrane; endogenous in cells
T1 sequence (P21730 1-350): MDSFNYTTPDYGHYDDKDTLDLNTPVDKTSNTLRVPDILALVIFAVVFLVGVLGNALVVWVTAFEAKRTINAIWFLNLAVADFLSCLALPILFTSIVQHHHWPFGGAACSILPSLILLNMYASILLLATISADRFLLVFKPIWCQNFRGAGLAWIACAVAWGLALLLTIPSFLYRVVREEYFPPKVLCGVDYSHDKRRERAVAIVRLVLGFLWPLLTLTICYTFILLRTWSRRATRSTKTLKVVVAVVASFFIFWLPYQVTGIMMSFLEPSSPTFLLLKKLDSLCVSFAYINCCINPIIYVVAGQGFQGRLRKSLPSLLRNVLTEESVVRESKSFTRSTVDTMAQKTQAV
From the text: The affinity of these peptides is shown, for example, by radiolabeling intact C5a, and using the unlabeled peptide to compete the labeled C5a from C5a receptor binding sites on cellular membranes. Preparations of polymorphonuclear leukocytes (PMN's) are known to express the C5a receptor, (inhibition of the chemotactic response to C5a of this type of cell is one desirable utility for compounds identified by the instant assay). One method for preparing these membranes is described by Rollins, T. E. et al., [J. Biol. Chem. 264:520-526 (1988); see also U.S. Pat. No. 5,177,190, herein incorporated by reference as a method for isolating and purifying C5a receptor]. Briefly, this involves isolating PMN's in large quantity, disrupting these cells and obtaining the membrane fraction by centrifugation. Protein assay of the membrane preparation allows for standardization of the amount of protein added in any set of membrane binding experiments.
(§1) In FIG. 1, unlabeled C013 is used to compete with ^125 I-labeled C5a. […] In FIG. 2, the C013 is ^125 I labeled. Unlabeled C5a and unlabeled C013 are each used to compete the labeled C013 from C5a binding sites on the membranes. […] In FIG. 3a, ^125 I-C5a is competed from its binding site by unlabeled C064 and unlabeled, natural C5a (as opposed to recombinant C5a, which, however, may also obviously may be used for these purposes). […] In FIG. 3b, the inverse experiment is shown, wherein ^125 I-C064 is displaced by unlabeled C064 and unlabeled nC5a.
Hexapeptides within this class differing only at position X have similar affinities for the C5a receptor. As measured in competition binding experiments against ^125 I-C5a on human neutrophil membranes their IC50 's varied by only a factor of 3, from 25 to 80 nM (Table II):
^2 Binding experiments were carried out with human neutrophil
Binding is initiated by an addition of 20 μL of PMN membrane (typically 0.5 μg of protein) to each tube. After incubation for 90 min. at room temperature 2 ml of 0.05 M HEPES, pH 7.2, containing 0.5% BSA are added to the tube, the contents vortexed and filtered over a Whatman GF/C filter which has been soaked in 0.3% polyethylenimine. An additional 2 ml of buffer are added to the tube and used to wash the filter. All of the test samples are dissolved in DMSO, another water miscible organic solvent, or in an aqueous solvent. Non-specific background was determined by inclusion of a 100-fold excess of unlabeled C5a.
The percent inhibition is calculated according to the following formula: [formula]
Iodination of C5a was carded out with the use of chloramine T. (Rollins, T.E., and Springer, M.S. (1985) J. Biol. Chem. 260, 7157-7160). […] Concentrations of C5a were determined by amino acid analysis and by RIA (Amersham Corp.). Membranes were prepared from human PMN as described by Rollins, T.E., Sciliano, S and Springer, M.S., J. Biol Chem 264 520-526 (1988).

[2] = system: human neutrophils; assay: Degranulation, myeloperoxidase (MPO) release from human neutrophils (agonism); format: cell-based
Procedure: (§2) FIG. 5A and 5B. Degranulation and Ca^2+ responses to the hexapeptides. […] The ED50 's for the degranulation are: C5a, 0.5 nM; C028, 0.2 μM; C026, 1 μM. C5a, maximally, released 57% of the total cellular content of MPO. The ability of these molecules to elicite a Ca^2+ -flux is shown in B. The concentrations used for C028 (10 μM), C026 (10 μM), C061 (100 μM) are those which produce a maximal flux. A saturating concentration was also used for C5a (1 nM).
(§3) This assay was performed on human neutrophils as previously reported and it is a measure of C5a or peptide induced exocytosis (Rollins, T. E. and Springer, M. S. (1985) J. Biol. Chem. 260, 7157-7160).
The functional properties of two of the peptides, C026, and C028, were originally described by Mollison et. al (Mollison, K. W., Krause, R. A., Fey, T. A., Miller, L., Wiedeman, P. e., Kawai, M., Lane, B., Luly, J. R. and Carter, G. W. (1992) FASEB J. 6, A2058). […] We have reinvestigated the degranulating activities of these peptides as measured by the release of myeloperoxidase (MPO) from human neutrophils. […] The EC50 /IC50 (degranulation/binding) for C028 is 8, the same as that measured for C5a (Table II, FIG. 5A). […] However, the difference in activity between C026 and C028 is significant and reproducible. Since the structural difference between the two is the substitution of an aromatic for an aliphatic residue (Phe for Cha) we chose to make additional changes at position 5 which further increased aromaticity. […] To further examine whether the differences in activity between the peptides reflects the increased aromaticity we synthesized a molecule with Leu, an aliphatic amino acid, at position 5 (C068, Table II).

[3] = system: human neutrophils; assay: Ligand induced Ca2+ flux (Indo-1 fluorescence); format: cell-based; details: maximal effects, peptide 10-100 μM vs 1 nM C5a, FIG. 5B
Procedure: as §2
(§4) Ligand induced Ca^2+ fluxes were measured by following the change in Indo-1 induced fluorescence on a FACS analyzer as previously described (Van Riper, G., Siciliano, S. J., Fischer, P. A., Meurer, R., Springer, M. S. and Rosen, H. (1993) J. Exp. Med. 177, 851-856.).
FIG. 5B compares the maximal effects of each peptide (10-100 μM) with the response induced by C5a (1 nM).

[4] = target: T1, C5a receptor; assay: Agonist activity over all C5a induced responses (chemotaxis, MPO release, calcium flux, GTPase activity, GTPγ-S binding); format: cell-based; details: C089 tested up to and including 100 μM
Procedure: The EC50 measures the concentration of compound at which a 50% maximal stimulation of a given biological response induced by C5a is achieved (chemotaxis, MPO release, calcium flux, GTPase activity or GTPγ-S binding), and the IC50 is the concentration at which 50% maximal inhibition of C5a binding is achieved.
as §3, §4
This assay is a modification of the procedure described by Sims et. al. (Sims, T. J., Geissler, F. T. and Page, R. C. (1985) J. lmmunol. Meth. 78, 279-291 ). Chemotaxis was assayed in a 48 well Neuro Probe chamber (Neuro Probe, Bethesda, MD) using ^51 Cr-labelled cells. […] After preforming a gradient for 30 minutes at 37° C., 2×10^5 labelled cells were added to the upper chamber and allowed to migrate at 37° C. for one hour. The upper two polycarbonate filters were then discarded and the formed wells cut from the nitrocellulose membrane. The radioactivity present in these filters is a measure of the number of cells that migrated through both polycarbonate filters.
The method of Kupper et al. (Kupper, R. W., Dewald, B., Jakobs, K. H., Baggiolini, M. and Gierschik, P. (1992) Biochem. J. 282, 429-434) was adapted for use in microtiter plates. Neutrophil membranes were suspended in 50 mM triethanolamine-HCl, 5 mM MES, pH 7.3, containing 1 mM EDTA, 5 mM MgCl2, 143 mM NaCl, 0.16 % BSA, 1 mM ouabain, 1 mM AMP-PNP, 0.5 mM ATP, 2.5 U/mL creatine phosphokinase,. 10 mM creatine phosphate, 0.1 mM PMSF and 10 ng/mL each of leupeptin, aprotinin and chymostatin. 50 μL of membranes containing 1-5 μg protein were added to 50 μL of the same buffer containing the test agent and 0.25 μM [γ-^32 P]-GTP (2,000 cpm/pmol) in the wells of a U-shaped microtiter plate. After incubation for 15-30 rain at 29° C., 100 μL of a 10% (w/v) charcoal suspension in 100 mM H3 PO4 was added and plates were centrifuged at 2000 rpm for 5 min. 100 μL of the supernatant was transferred to an Optiplate microtiter plate and 100 μL of Microscint-40 scintillation cocktail was added. Plates were counted in a Packard TopCount microtiter plate counter.

[5] = target: T1, C5a receptor; assay: biochemical; format: binding; details: for IC50: read-out: IC50 exhibited by the unlabeled ligand
Procedure: Initially, we attempted to conduct binding studies with ^125 I radiolabeled C009: ^125 I-Tyr Phe Lys Ala Cha Cha Leu dPhe Arg, SEQ.ID:1:, wherein Cha is cyclohexylalanine, and dPhe is the D isomer of phenylalanine. This compound is a C5a agonist displaying a Ki for C5a of 8 nM. The presence of the tyrosine allowed us to radioiodinate the peptide and establish a binding assay in which both C5a (IC50=0.1 nM) and unlabeled C009 (IC50 =10 nM) inhibit the binding of ^125 I-C009 with concentration dependencies similar to those obtained from competition experiments against ^125 I-C5a.
as §1
Peptide (5 nMoles) are added to 40μL of 0.1 M sodium phosphate, pH 7.6, in a tube, followed by 2 mCi of ^125 I in 20 μL. 10 μL of a freshly made 0.5 mg/mL solution of chloramine T is then added. After 30 seconds of incubation, 10 μL of a freshly prepared 2 mg/mL solution of Na2 S2 O3 is added, the tube is vortexed, and the sample loaded onto a Vydac C4 reverse phase column. The column is developed with a TFA/acetonitrile gradient and the iodinated peptide is isolated. The material is stored at 4° C. in the elution buffer.
To 205 μL binding buffer (50 mM HEPES, pH 7.2, containing 5 mM MgCl2, 1mM CaCl2, 0.5% BSA) in a polypropylene tube is added 30,000CPM of the ^125 I peptide in 20 μL, and 5 μL of a known dilution of the test compound or diluent, followed by a 20 μL aliquot of neutrophil membrane [equivalent to 500,000 neutrophils; Rollins, T.E. et al., J. Biol Chem. 260:7157 (1985); see also U.S. Pat. No. 5,177,190, herein incorporated by reference].
The assay mixture is incubated for 2 hours at 29° C. Binding buffer (2 mL) is then added, the tube is vortexed, and the contents filtered over a Wattmann GF/C filter soaked in 0.33% polyethylenimine. An additional aliquot of binding buffer (2 mL) is added to the tube to rinse the tube, and is then used to wash the filter. The filters are removed from the apparatus and counted. Non-specific backgrounds are determined by performing assays in the presence of either 10 nM C5a, or 1 μM unlabeled peptide. Compounds which inhibit the binding of the labeled peptide are considered to be potential active compounds.

[6] = labeled ligand 125I-C5a, read-out: IC50 exhibited by the unlabeled ligand

Molecule: CN[C@@H](Cc1ccccc1)C(=O)N[C@@H](CCCCN)C(=O)N1CCC[C@H]1C(=O)N[C@H](CC1CCCCC1)C(=O)N[C@@H](CC(C)C)C(=O)N[C@H](CCCNC(=N)N)C(=O)O [C068] (H-[NMeF]KP[dCha]L[dR]-OH)
IC50 ([1]; Table II, human neutrophil membranes, competition against 125I-C5a, read-out: Binding IC50): 60 nM
degranulating activity in words ([2]; FIG. 5A): full agonist, as measured both by maximal release and ED50 /IC50 ratio
Ca2+ response in words [3]: full agonist in this assay
agonist activity in words, all responses [4]: almost complete agonists of all of these responses

Molecule: IL-8: chemokine IL-8
release of total cellular MPO ([2]; 0.4 nM C5a or 8 nM IL-8, cells without C089): 19%

Molecule: CC(C)C[C@H](NC(=O)CNC(=O)[C@H](CC1CCCCC1)NC(=O)[C@H](C)NC(=O)[C@H](CCCCN)NC(=O)[C@H](Cc1ccccc1)NC(=O)[C@@H](N)Cc1ccc(O)cc1)C(=O)N[C@H](Cc1ccccc1)C(=O)N[C@@H](CCCNC(=N)N)C(=O)O [C013, Tyr Phe Lys Ala Cha Gly Leu dPhe Arg] (H-YFKA[Cha]GL[dF]R-OH)
IC50 [1, 6]: 14 nM
binding affinity relative to 125I-C009 [5]: about 30 fold
IC50 ([5]; labeled ligand 125I-C013): 1 nM

Molecule: ^125 I-Tyr Phe Lys Ala Cha Cha Leu dPhe Arg [125I-C009]
non-specific binding of the labeled peptide [5]: high non-specific binding

B1: 125I-C5a: C5a iodinated with chloramine T (100-200 mCi/mg) (protein, UniProt P01031 678-751, looked up)
C5a anaphylatoxin: TLQKKIEEIAAKYKHSVVKKCCYDGACVNNDETCEQRAARISLGPRCIKAFTECCVVASQLRANISHKDMQLGR
modifications: C5a anaphylatoxin 125I label
affinity of radioiodinated C5a in words ([1]; 100-200 mCi/mg): same affinity for the receptor as did the nonderivatized protein

Continued, values first:

effect on binding of C5a COOH-terminal peptides in words ([5]; 125I-C009 for fMLP and IL-8, COOH-terminal peptides for L-584,020): neither
Molecule: CSCC[C@H](NC=O)C(=O)N[C@@H](CC(C)C)C(=O)N[C@@H](Cc1ccccc1)C(=O)O [fMLP, N-formyl-methionyl-leucyl-phenylalanine, reference compound]

IC50 [1, 6]: 8 nM
non-specific binding of the labeled peptide [5]: low non-specific binding
IC50 ([5]; labeled ligand 125I-C064): 1.5 nM
Molecule: Tyr Phe Lys Pro dCha Cha dArg (YFKP[dCha][Cha][dR]) [C064, name also used for the 125I-Tyr peptide]
